Data taken from patent US20240366728A1, “Treatment of Diabetes Mellitus” (Carmot Therapeutics Inc., priority 2023, published 2024).
pEC50: −log10 of the molar value. “Also recorded” adds a separate entry of the source.

Key:
mouse GLP-1R [1] = biological target: T1, mouse GLP-1R (Mus musculus, UniProt O35659); assay: β-arrestin-2 recruitment (NanoBiT), mouse GLP-1R; assay type: cell-based
T1 sequence (O35659 22-463): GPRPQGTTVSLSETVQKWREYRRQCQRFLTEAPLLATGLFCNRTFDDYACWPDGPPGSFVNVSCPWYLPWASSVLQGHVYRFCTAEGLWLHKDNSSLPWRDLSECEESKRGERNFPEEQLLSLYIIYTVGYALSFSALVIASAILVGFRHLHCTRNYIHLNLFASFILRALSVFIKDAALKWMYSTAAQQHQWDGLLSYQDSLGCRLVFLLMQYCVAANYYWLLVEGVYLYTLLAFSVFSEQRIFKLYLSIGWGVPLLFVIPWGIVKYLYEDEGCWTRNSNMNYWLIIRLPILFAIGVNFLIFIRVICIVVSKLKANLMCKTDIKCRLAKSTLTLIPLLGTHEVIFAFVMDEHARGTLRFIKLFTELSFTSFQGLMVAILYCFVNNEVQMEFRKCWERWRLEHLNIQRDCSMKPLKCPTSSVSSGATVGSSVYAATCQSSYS
Method: (§1) To measure GLP-1R and GIPR-mediated β-arrestin recruitment, we utilized Promega's NanoBiT® technology or NanoLuc® Binary Technology. The NanoLuc luciferase is split into two subunits, called LgBiT and SmBIT, which are expressed in HEK293 cells as fusion proteins at the C-terminus of GLP-IR or GIPR and the N-terminus of β-arrestin-2. […] The next day, the media was removed and replaced with […] 1:100 dilution of Nano-Glo® Live Cell Substrate in Opti-MEM™ and equilibrated to room temperature for ten minutes. Background luminescence was measured before 10 nL compound was added using an ECHO Acoustic Liquid Handler.
(§2) To measure GLP-1R and GIPR-mediated β-arrestin recruitment, Promega's NanoBiT® technology or NanoLuc® Binary Technology were utilized. Both allow for the detection and quantification of protein: protein interactions in live cells (Samms et al., Trends Endocrinol Metab 31:410-21). The NanoLuc luciferase is split into two subunits, called LgBiT and SmBIT, which are expressed in HEK293 cells as fusion proteins at the C-terminus of GLP-1R or GIPR and the N-terminus of β-arrestin-2, respectively. […] The next day, media was removed and replaced with 10 μL 1:100 dilution of Nano-Glo® Live Cell Substrate in Optimem and equilibrated to room temperature for ten minutes. Background luminescence was measured before 10 nL compound was added using an ECHO Acoustic Liquid Handler. Luminescence was measured at 1.5-minute intervals for 30 minutes.

mouse GIPR [2] = biological target: T2, mouse GIPR (Mus musculus, UniProt Q0P543); assay: β-arrestin-2 recruitment (NanoBiT), mouse GIPR; assay type: cell-based
T2 sequence (Q0P543 19-460): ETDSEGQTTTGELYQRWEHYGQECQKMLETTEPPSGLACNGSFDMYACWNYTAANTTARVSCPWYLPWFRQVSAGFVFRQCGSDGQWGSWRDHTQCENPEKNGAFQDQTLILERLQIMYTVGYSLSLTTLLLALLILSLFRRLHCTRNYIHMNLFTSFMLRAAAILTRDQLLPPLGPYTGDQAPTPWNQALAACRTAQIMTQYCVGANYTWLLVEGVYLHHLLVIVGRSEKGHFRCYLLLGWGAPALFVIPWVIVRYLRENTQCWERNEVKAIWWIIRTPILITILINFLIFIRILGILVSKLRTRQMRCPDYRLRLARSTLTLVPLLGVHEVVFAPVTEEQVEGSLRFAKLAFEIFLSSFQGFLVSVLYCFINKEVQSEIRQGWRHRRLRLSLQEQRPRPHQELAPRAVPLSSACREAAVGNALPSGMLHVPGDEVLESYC
Method: as §1, §2

human GIPR = biological target: T3, human GIPR (Homo sapiens, UniProt P48546); assay: receptor internalization (Nano-Glo HiBiT), human GIPR; assay type: cell-based
T3 sequence (P48546 22-466): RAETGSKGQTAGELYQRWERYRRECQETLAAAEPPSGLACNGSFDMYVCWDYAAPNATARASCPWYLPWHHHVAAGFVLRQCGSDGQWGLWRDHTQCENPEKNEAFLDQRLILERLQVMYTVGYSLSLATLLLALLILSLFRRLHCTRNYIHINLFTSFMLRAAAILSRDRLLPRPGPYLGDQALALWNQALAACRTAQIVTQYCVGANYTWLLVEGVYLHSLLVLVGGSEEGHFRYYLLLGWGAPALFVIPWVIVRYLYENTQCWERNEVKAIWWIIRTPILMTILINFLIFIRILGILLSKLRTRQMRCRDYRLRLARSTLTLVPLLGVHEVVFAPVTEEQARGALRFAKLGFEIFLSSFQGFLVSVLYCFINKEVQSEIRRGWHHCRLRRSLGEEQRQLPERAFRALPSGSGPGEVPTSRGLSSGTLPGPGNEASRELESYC
Method: (§3) GLP-1R and GIPR internalization were measured using Promega's Nano-Glo® HiBit extracellular detection system (Promega Corporation; Madison, WI). Hek293 cells were transiently transfected with HiBiT-tagged hGLP-1R or hGIPR plasmids (Promega Corporation; Madison, WI). Cells were lifted using the TrypLE express enzyme (ThermoFisher Scientific) and plated at 80,000-100,000 cells per well in 96 well plates. Cells were then treated with Nano-Glo HibiT extracellular buffer containing LgBiT protein (1:100), and the Nano-Glo HiBiT extracellular substrate (1:50).
(§4) GLP-1R and GIPR internalization was measured using Promega's Nano-Glo® HiBit extracellular detection system (Promega Corporation; Madison, WI). HEK293 cells were transiently transfected with low quantities of HiBiT-tagged hGLP-1R or hGIPR plasmids (Promega Corporation; Madison, WI). The next day, cells were lifted using TrypLE express enzyme (ThermoFisher Scientific) and plated at 80,000-100,000 cells per well in 96 well plates.

[3] = in vivo
human GLP-1R = human GLP-1R (Homo sapiens, UniProt P43220); assay: receptor internalization (Nano-Glo HiBiT), human GLP-1R; assay type: cell-based; design: host or cells: HEK293
Chain of human GLP-1R (P43220 24-463): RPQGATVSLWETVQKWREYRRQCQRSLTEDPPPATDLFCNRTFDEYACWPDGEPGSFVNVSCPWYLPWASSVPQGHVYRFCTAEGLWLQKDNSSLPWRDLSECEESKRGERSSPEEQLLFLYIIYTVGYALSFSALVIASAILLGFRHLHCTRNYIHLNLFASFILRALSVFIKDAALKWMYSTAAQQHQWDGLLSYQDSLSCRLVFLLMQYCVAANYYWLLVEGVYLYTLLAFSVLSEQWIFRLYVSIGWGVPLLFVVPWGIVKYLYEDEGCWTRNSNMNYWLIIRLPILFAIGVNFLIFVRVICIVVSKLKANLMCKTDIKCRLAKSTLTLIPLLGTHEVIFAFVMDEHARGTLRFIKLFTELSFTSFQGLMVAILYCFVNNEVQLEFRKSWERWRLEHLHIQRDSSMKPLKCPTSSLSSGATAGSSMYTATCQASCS
Method: as §3, §4

mouse GLP-1R [4] = biological target: T1, mouse GLP-1R; assay: cAMP accumulation (HitHunter cAMP assay), mouse GLP-1R U2OS cells
mouse GIPR [5] = biological target: T2, mouse GIPR; assay: cAMP accumulation (HitHunter cAMP assay), mouse GIPR CHO-K1 cells
GIPR+/+ and GIPR-/- mice = assay: intraperitoneal glucose tolerance test in GIPR+/+ and GIPR-/- mice; assay type: in vivo, mouse
C57BL/6J-DIO mice = assay: intraperitoneal glucose tolerance test in DIO mice; assay type: in vivo, mouse; conditions: DIO mice; 20 nmol/kg

CCCCCCCCCCCCCCCC(=O)N[C@@H](CCC(=O)NCCCC[C@H](NC(=O)[C@H](CO)NC(=O)[C@@H]1CCCN1C(=O)[C@@H]1CCCN1C(=O)[C@@H]1CCCN1C(=O)[C@H](C)NC(=O)CNC(=O)[C@H](CO)NC(=O)[C@H](CO)NC(=O)[C@@H]1CCCN1C(=O)CNC(=O)CNC(=O)[C@H](C)NC(=O)[C@H](CC(C)C)NC(=O)[C@H](CC(C)C)NC(=O)[C@H](Cc1c[nH]c2ccccc12)NC(=O)[C@H](CC(N)=O)NC(=O)[C@@H](NC(=O)[C@H](Cc1ccccc1)NC(=O)[C@H](CCC(=O)O)NC(=O)C(C)(C)NC(=O)[C@H](C)NC(=O)[C@H](C)NC(=O)[C@H](CCC(N)=O)NC(=O)[C@H](CCCCN)NC(=O)[C@H](CC(=O)O)NC(=O)[C@H](CC(C)C)NC(=O)[C@H](Cc1ccc(O)cc1)NC(=O)[C@@H](NC(=O)[C@H](CO)NC(=O)[C@H](Cc1ccc(O)cc1)NC(=O)[C@H](CC(=O)O)NC(=O)[C@H](CO)NC(=O)[C@@H](NC(=O)[C@H](Cc1ccccc1)NC(=O)[C@@H](NC(=O)CNC(=O)[C@H](CCC(=O)O)NC(=O)CSCC(=O)NCCN1CCCCC1=O)[C@@H](C)O)[C@@H](C)O)[C@@H](C)CC)C(C)C)C(N)=O)C(=O)O [CT-868]
pEC50 (mouse GLP-1R [1]; Table 17, read-out: mGLP-1R β-arrestin-2 EC50): 7.68 | Emax (mouse GLP-1R [1]; read-out: mGLP-1R β-arrestin-2 % Emax, Table 17): 4.69% | Emax (mouse GIPR [2]; read-out: mGIPR β-arrestin-2 % Emax, Table 17): -1.92% | Emax (human GIPR; Table 17, read-out: hGIPR Internalization % Emax): -11% | highest tested dose exceeds pharmacologically active dose by [3]: 100 fold | vomiting (in words) [3]: no instances of vomiting | Emax (human GLP-1R; Table 17, read-out: hGLP-1R Internalization % Emax): -13% | Emax (mouse GLP-1R [4]; U2OS, read-out: mGLP-1R cAMP (-alb) % Emax): 95% | Emax (mouse GIPR [5]; CHO-K1, read-out: mGIPR cAMP (-alb) % Emax): 36%

CCCCCCCCCCCCCCCC(=O)N[C@@H](CCC(=O)NCCCC[C@H](NC(=O)[C@H](CO)NC(=O)[C@@H]1CCCN1C(=O)[C@@H]1CCCN1C(=O)[C@@H]1CCCN1C(=O)[C@H](C)NC(=O)CNC(=O)[C@H](CO)NC(=O)[C@H](CO)NC(=O)[C@@H]1CCCN1C(=O)CNC(=O)CNC(=O)[C@H](C)NC(=O)[C@H](CC(C)C)NC(=O)[C@H](CC(C)C)NC(=O)[C@H](Cc1c[nH]c2ccccc12)NC(=O)[C@H](CC(N)=O)NC(=O)[C@@H](NC(=O)[C@H](Cc1ccccc1)NC(=O)[C@H](CCC(=O)O)NC(=O)C(C)(C)NC(=O)[C@H](C)NC(=O)[C@H](C)NC(=O)[C@H](CCC(N)=O)NC(=O)[C@H](CCCCN)NC(=O)[C@H](CC(=O)O)NC(=O)[C@H](CC(C)C)NC(=O)[C@H](Cc1ccc(O)cc1)NC(=O)[C@@H](NC(=O)[C@H](CO)NC(=O)[C@H](Cc1ccc(O)cc1)NC(=O)[C@H](CC(=O)O)NC(=O)[C@H](CO)NC(=O)[C@@H](NC(=O)[C@H](Cc1ccccc1)NC(=O)[C@@H](NC(=O)CNC(=O)[C@H](CCC(=O)O)NC(=O)CSCC(=O)NCCN1C(=O)CSC1=O)[C@@H](C)O)[C@@H](C)O)[C@@H](C)CC)C(C)C)C(N)=O)C(=O)O [CT-859]
recruitment of β-arrestin-2 to mouse GLP-1R (mouse GLP-1R [1]): < 5% | native ligand mediated recruitment of β-arrestin-2 at GLP-1R (in words) (mouse GLP-1R [1]; antagonist mode vs GLP-1): inhibited | native ligand mediated recruitment of β-arrestin-2 at GIPR (in words) (mouse GIPR [2]; antagonist mode vs GIP): inhibited | recruitment of β-arrestin-2 to mouse GIPR (mouse GIPR [2]; vs GIP): < 5% | human GIPR surface expression (in words) (human GIPR): stimulating greater surface expression than vehicle | reduction in GLUC AUC in GTT (GIPR+/+ and GIPR-/- mice; 20 nmol/kg, 4 h after dosing): 62% | glucose lowering (in words) (GIPR+/+ and GIPR-/- mice; 20 and 200 nmol/kg): efficacious at lowering glucose levels | duration of glucose lowering (in words) (GIPR+/+ and GIPR-/- mice; single 20 nmol/kg, ipGTT at 4, 24, 48 h): maintained its activity at 24 and 48 hours; also recorded: maintained significant reduction after 24 h and 48 h | glucose AUC 4 hours after administration (in words) (C57BL/6J-DIO mice): more efficacious than liraglutide in DIO mice | GLP-1R expression after two hours of exposure (in words) (human GLP-1R): higher versus vehicle-treated cells | agonist type for cAMP accumulation at mouse GLP-1R (in words) (mouse GLP-1R [4]): full agonist | times less potent than Liraglutide (mouse GLP-1R [4]; cAMP, mouse GLP-1R): 12 times | times less potent than native ligand GLP-1 (mouse GLP-1R [4]; cAMP, mouse GLP-1R): 113 times | agonist type for cAMP accumulation at mouse GIPR (in words) (mouse GIPR [5]): partial agonist | times lower potency than GIP (mouse GIPR [5]; cAMP, mouse GIPR): 48 times
